Results taken from US20260374750A1, “LIGANDS SPECIFICALLY TARGETING VESICULAR GLUTAMATE TRANSPORTERS FOR SUPER-RESOLUTION IMAGING” (SORBONNE UNIVERSITÉ, priority 2021, published 2026).

Test system: VGLUT3 (BON VGLUT3 cells)
Test: Confocal fluorescence labeling of BON cells expressing VGLUT3
Type: cell-based, human (BON cells)
Settings: for intensity of labeling in BON VGLUT3 cells relative to BON WT cells: FIG. 3, 20 minutes; for intensity of labeling in BON VGLUT3 cells relative to BON WT cells / fluorescence intensity in BON VGLUT3 cells relative to BON WT cells / labeling in cytoplasm of BON VGLUT3 cells: 37 °C; for fluorescence intensity in BON VGLUT3 cells relative to BON WT cells / labeling in cytoplasm of BON VGLUT3 cells / effect of LSP5 pretreatment on fluorescence intensity in BON VGLUT3 cells: FIG. 2; for fluorescence intensity in BON VGLUT3 cells relative to BON WT cells / labeling in cytoplasm of BON VGLUT3 cells: 1 h; for effect of LSP5 pretreatment on fluorescence intensity in BON VGLUT3 cells: pretreatment with LSP5-2157
Procedure: A “BON” cell line describes cells derived from human pancreatic carcinoma; the article by Ramet L. et al., published in J Neurosci, 2017, 37 (15), 4181-4199, describes such cells and the use thereof for the characterization of VGLUT type transporters.
The experiments are carried out with a BON cell line stably expressing VGLUT3 or a fluorescent VGLUT2 “VGLUT2-venus”. Wild non-transfected BON cells (“wild-type”, BON WT) are used as controls. The cells are cultured in F-12 Nutrient Mixture Ham medium (21765-029, Thermo Fisher Scientific) and Dulbecco's Modified Eagle's Medium High Glucose (DMEM HG, 31966021, Thermo Fisher Scientific; volume/volume), supplemented with 10% fetal calf serum (FCS, 12483012, Thermo Fisher Scientific) and 1% (volume/volume) of a mixture of streptomycin (10 mg/mL)/penicillin (10,000 U/mL) and […] an incubator at 37 °C under 5% CO2. For the transfected clones, the medium is enriched with 0.8 mg/mL Geneticin G418 sulfate (G418, 10131027, Thermo Fisher Scientific).
The cells are cultured in 25 cm^2 culture flasks. When the cells are at confluence, they are rinsed with sterile PBS 1× after aspiration of the medium, then incubated for five minutes at 37 °C with a solution of trypsin-EDTA (0.05% trypsin EDTA, 25300054, Thermo Fisher Scientific. The cell layer is then detached and the cells dissociated from each other. After addition of medium, the cell suspension is centrifuged for 5 minutes at 300 g, then the pellet is diluted 1:3 in order to be recultivated.
Two days before each experiment, after trypsinization of the cells from a culture flask, the cell suspension is seeded at 150,000 cells/well, in twelve-well plates on glass coverslips 19 mm in diameter. For observation, these coverslips are placed in a chamber allowing a hermetic fixation of the coverslip in the observation medium, Fluorobrite™ DMEM (A1896701, Thermo Fisher Scientific), a transparent medium.
Before each observation, the cells are incubated at 37 °C in the presence of fluorescent ligands, at previously determined concentrations. The effect of a pretreatment of BON cells with a specific inhibitor of VGLUTs, the substance LSP5-2157, is also performed to study the inhibitory effect of this substance on the labeling of BON cells with the fluorescent ligands of the invention.
The cells are observed in real time under an inverted confocal microscope, with a 63× objective in a room thermostated at 37 °C (Leica TCS SP5; cellular imaging platform of the Paris-Seine Institute of Biology). The studied fluorescent molecules emit in the blue, the cells are excited at 405 nm.
FIG. 2 illustrates the observation and quantification of the BON cells under a confocal microscope, and the inhibition of the fluorescent signal by a pretreatment of the cells with the specific VGLUT inhibitor, LSP5-2157. […] The images are presented in negative. D,H,L and P: Quantification of the treatment effect.
Different acquisitions of cells are carried out using a confocal microscope. […] Statistical analysis: Kruskal-Wallis test followed by Dunn's post-hoc test, NS: non-significant, *p<0.01; ***p<0.0001.
FIG. 3 illustrates the observation and quantification of BON cells using a confocal microscope. Wild-type cells (BON WT) or VGLUT3-expressing cells (BON VGLUT3) are incubated with different fluorescent ligands referenced: L8, YL151, D04, C07, C05, B09, G02, F11. After treatment with fluorescent ligands for 20 minutes at 37 °C, a fluorescent labeling is visible in BON cells. The effect of the treatment is analyzed by quantifying the fluorescence intensity in each cell type. […] Statistical analysis: Mann Whitney test, NS: non-significant, **p=0.0042; ***p<0.0001.

| SMILES | intensity of labeling in BON VGLUT3 cells relative to BON WT cells | fluorescence intensity in BON VGLUT3 cells relative to BON WT cells | labeling in cytoplasm of BON VGLUT3 cells | effect of LSP5 pretreatment on fluorescence intensity in BON VGLUT3 cells |
| --- | --- | --- | --- | --- |
| Nc1ccc(-c2ccc(-c3cn(-c4ccc5oc(=O)c(C(=O)O)cc5c4)nn3)cc2)cc1 [LSP17-1115, 6-(4-(4′-amino-[1,1′-biphenyl]-4-yl)-1H-1,2,3-triazol-1-yl)-2-oxo-2H-chromene-3-carboxylic Acid] | increases significantly |  |  |  |
| CCOC(=O)c1cc2cc(C#Cc3ccc(-c4ccc(N)cc4)cc3)c(O)cc2oc1=O [F11, Ethyl-6-((4′-amino-[1,1′-biphenyl]-4-yl)ethynyl)-7-hydroxy-2-oxo-2H-chromene-3-carboxylate] | increases significantly |  |  |  |
| COc1cc2oc(=O)c(C(=O)O)cc2cc1-n1cc(-c2ccc(-c3ccc(N)cc3)cc2)nn1 [LSP17-1124, 6-(4-(4′-amino-[1,1′-biphenyl]-4-yl)-1H-1,2,3-triazol-1-yl)-7-methoxy-2-oxo-2H-chromene-3-carboxylic Acid] | increases significantly |  |  |  |
| O=C(O)c1cc(C(=O)O)c2cc(-c3ccc(-c4ccccc4)cc3)ccc2n1 [LSP13-1152-YL152 (L8), 6-(Biphenyl-4-yl) quinoline-2,4-dicarboxylic Acid] | increases significantly | significantly increases | a punctiform labeling appears | decreases the fluorescence intensity |
| Nc1ccc(-c2ccc(C#Cc3cc4cc(C(=O)O)c(=O)oc4cc3O)cc2)cc1 [LSP17-1173, 6-((4′-amino-[1,1′-biphenyl]-4-yl)ethynyl)-7-hydroxy-2-oxo-2H-chromene-3-carboxylic Acid] | increases significantly | significantly increases | a punctiform labeling appears | decreases the fluorescence intensity |
